Reference: ChEMBL document CHEMBL4334530, “Glucoconjugated Monoterpene Indole Alkaloids from Uncaria rhynchophylla” (J Nat Prod, 2019)
Structures can show the parent of a compound that is named as a salt.

Legend:
[1] = system: MCF7; test: Cytotoxicity against human MCF7 cells assessed as cell growth inhibition measured after 48 hrs by MTT assay; format: functional, cell-based; conditions: MCF7, 48 h
[2] = system: HepG2; test: Cytotoxicity against human HepG2 cells assessed as cell growth inhibition measured after 48 hrs by MTT assay; format: functional, cell-based; conditions: HepG2, 48 h
[3] = system: A549; test: Cytotoxicity against human A549 cells assessed as cell growth inhibition measured after 48 hrs by MTT assay; format: functional, cell-based; conditions: A549, 48 h
[4] = target: Acetylcholinesterase (Electrophorus electricus, UniProt O42275); test: Inhibition of electric eel AChE using acetylthiocholine iodide as substrate preincubated for 20 mins followed by substrate addition measured for 30 mins by Ellman's method
Chain of Acetylcholinesterase (O42275 whole entry): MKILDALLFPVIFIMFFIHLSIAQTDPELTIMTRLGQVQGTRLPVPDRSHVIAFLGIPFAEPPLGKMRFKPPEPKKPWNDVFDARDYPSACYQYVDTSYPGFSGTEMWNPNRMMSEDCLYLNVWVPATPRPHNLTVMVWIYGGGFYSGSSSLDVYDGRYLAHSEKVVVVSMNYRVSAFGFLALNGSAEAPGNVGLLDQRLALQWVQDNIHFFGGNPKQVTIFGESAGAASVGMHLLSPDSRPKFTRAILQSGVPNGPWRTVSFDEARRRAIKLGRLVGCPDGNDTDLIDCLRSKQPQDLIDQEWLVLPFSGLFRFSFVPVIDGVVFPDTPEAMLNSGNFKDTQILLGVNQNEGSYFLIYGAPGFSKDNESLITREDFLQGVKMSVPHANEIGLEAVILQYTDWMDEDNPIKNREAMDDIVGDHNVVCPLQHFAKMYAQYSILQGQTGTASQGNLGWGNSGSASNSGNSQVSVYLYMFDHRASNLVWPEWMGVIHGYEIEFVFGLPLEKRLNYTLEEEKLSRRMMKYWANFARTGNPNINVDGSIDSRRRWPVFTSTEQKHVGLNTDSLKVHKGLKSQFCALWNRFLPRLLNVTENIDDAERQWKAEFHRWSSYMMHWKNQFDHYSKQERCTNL

Row | Compound | IC50 [1] [µM] | IC50 [2] [µM] | IC50 [3] [µM] | IC50 [4] [µM]
1 | C=C[C@H]1[C@H](O[C@@H]2O[C@H](CO)[C@@H](O)[C@H](O)[C@H]2O)OC=C2C(=O)N3[C@H](C(=O)O)Cc4c([nH]c5ccccc45)[C@@H]3C[C@H]21 | > 80 | > 80 | > 80 | 
2 | C=C[C@H]1[C@H](O[C@@H]2O[C@H](CO)[C@@H](O)[C@H](O)[C@H]2O)OC=C(C(=O)OC)[C@H]1C[C@@H]1N[C@H](C(=O)OC)Cc2c1[nH]c1ccccc21 | > 80 | > 80 | > 80 | 
3 | C=C[C@H]1[C@H](O[C@@H]2O[C@H](CO)[C@@H](O)[C@H](O)[C@H]2O)OC=C2C(=O)N3CCc4c([nH]c5ccc(O)cc45)[C@@H]3C[C@H]21 | > 80 | > 80 | > 80 | 
4 | COc1cccc2c1C(=O)c1c(O)c3c(c(O)c1C2=O)C[C@@](O)(C(=O)CO)C[C@@H]3O[C@H]1C[C@H](N)[C@H](O)[C@H](C)O1 [DOXORUBICIN HYDROCHLORIDE] | < 1 | < 1 | < 1 | 
5 | C=C[C@H]1CN2CC[C@@]3(C(=O)Nc4ccccc43)[C@@H]2C[C@@H]1/C(=C/OC)C(=O)O[C@@H]1O[C@H](CO)[C@@H](O)[C@H](O)[C@H]1O | > 80 | > 80 | > 80 | 
6 | C=C[C@H]1[C@H](O[C@@H]2O[C@H](CO)[C@@H](O)[C@H](O)[C@H]2O)OC=C2C(=O)N3CCc4c([nH]c5cc(O)ccc45)[C@H]3C[C@H]21 | > 80 | > 80 | > 80 | 
7 | C=C[C@H]1[C@H](O[C@@H]2O[C@H](CO)[C@@H](O)[C@H](O)[C@H]2O[C@@H]2O[C@H](CO)[C@@H](O)[C@H](O)[C@H]2O)OC=C2C(=O)N3Cc4c([nH]c5cc(O)ccc5c4=O)[C@H]3C[C@H]21 | > 80 | > 80 | > 80 | 
8 | C=C[C@H]1[C@H](O[C@@H]2O[C@H](CO)[C@@H](O)[C@H](O)[C@H]2O)OC=C2C(=O)N3CCc4c([nH]c5ccccc45)[C@@H]3C[C@H]21 | > 80 | > 80 | > 80 | 
9 | C=C[C@H]1[C@H](O[C@@H]2O[C@H](CO)[C@@H](O)[C@H](O)[C@H]2O)OC=C(C(=O)OC)[C@H]1C[C@@H]1N[C@H](C(=O)O)Cc2c1[nH]c1ccccc21 | > 80 | > 80 | > 80 | 
10 | C=C[C@H]1[C@H](O[C@@H]2O[C@H](CO)[C@@H](O)[C@H](O)[C@H]2O)OC=C(C(=O)OC)[C@H]1Cc1nc(C(=O)OC)cc2c1[nH]c1ccccc12 | > 80 | > 80 | > 80 | 
11 | C=C[C@H]1[C@H](O[C@@H]2O[C@H](CO)[C@@H](O)[C@H](O)[C@H]2O)OC=C2C(=O)N3CC[C@@]4(C(=O)Nc5cc(O)ccc54)[C@H]3C[C@H]21 | > 80 | > 80 | > 80 | 
12 | C=C[C@H]1COC(=O)C2=CN3CCc4c([nH]c5cccc(O[C@@H]6O[C@H](CO)[C@@H](O)[C@H](O)[C@H]6O)c45)[C@@H]3C[C@H]21 | > 80 | > 80 | > 80 | 10.5
13 | COC(=O)C1=CO[C@@H](O[C@@H]2O[C@H](CO)[C@@H](O)[C@H](O)[C@H]2O)[C@H]2[C@@H]1C[C@@H]1c3[nH]c4ccccc4c3CCN1[C@H]2CO | > 80 | > 80 | > 80 | 
14 | C=C[C@H]1CN2CC[C@]3(C(=O)Nc4ccccc43)[C@@H]2C[C@@H]1/C(=C/OC)C(=O)O[C@@H]1O[C@H](CO)[C@@H](O)[C@H](O)[C@H]1O | > 80 | > 80 | > 80 | 
15 | C=C[C@H]1[C@H](O[C@@H]2O[C@H](CO)[C@@H](O)[C@H](O)[C@H]2O[C@@H]2O[C@H](CO)[C@@H](O)[C@H](O)[C@H]2O)OC=C2C(=O)N3CCc4c([nH]c5ccccc45)[C@H]3C[C@H]21 | > 80 | > 80 | > 80 | 
16 | O=C1C2=CO[C@@H](O[C@@H]3O[C@H](CO)[C@@H](O)[C@H](O)[C@H]3O[C@@H]3O[C@H](CO)[C@@H](O)[C@H](O)[C@H]3O)[C@H]([C@H](O)CO)[C@@H]2C[C@@H]2c3[nH]c4cc(O[C@@H]5O[C@H](CO)[C@@H](O)[C@H](O)[C@H]5O)ccc4c3CCN12 | > 80 | > 80 | > 80 | 
17 | COC(=O)C1=CO[C@@H](O[C@@H]2O[C@H](CO)[C@@H](O)[C@H](O)[C@H]2O)[C@H]2[C@@H]1C[C@@H]1N(CC[C@]13C(=O)Nc1ccccc13)C[C@@H]2O | > 80 | > 80 | > 80 | 
18 | C=C[C@H]1[C@H](O[C@@H]2O[C@H](CO)[C@@H](O)[C@H](O)[C@H]2O)OC=C2C(=O)N3CCc4c([nH]c5ccccc45)[C@H]3C[C@H]21 | > 80 | > 80 | > 80 | 
19 | C=CC1C(C[C@@H]2NCCc3c2[nH]c2ccccc32)C(C(=O)O)=CO[C@H]1O[C@@H]1O[C@H](CO)[C@@H](O)[C@H](O)[C@H]1O (some centres undefined) [STRICTOSIDINIC ACID] | > 80 | > 80 | > 80 | 
20 | C=C[C@H]1[C@H](O[C@@H]2O[C@H](CO)[C@@H](O)[C@H](O)[C@H]2O[C@@H]2O[C@H](CO)[C@@H](O)[C@H](O)[C@H]2O)OC=C2C(=O)N3CC[C@]4(C(=O)Nc5cc(O)ccc54)[C@H]3C[C@H]21 | > 80 | > 80 | > 80 | 
21 | C=C[C@H]1[C@H](O[C@@H]2O[C@H](CO)[C@@H](O)[C@H](O)[C@H]2O[C@@H]2O[C@H](CO)[C@@H](O)[C@H](O)[C@H]2O)OC=C2C(=O)N3CCc4c([nH]c5cc(O[C@@H]6O[C@H](CO)[C@@H](O)[C@H](O)[C@H]6O)ccc45)[C@H]3C[C@H]21 | > 80 | > 80 | > 80 | 
22 | C=C[C@H]1[C@H](O[C@@H]2O[C@H](CO)[C@@H](O)[C@H](O)[C@H]2O[C@@H]2O[C@H](CO)[C@@H](O)[C@H](O)[C@H]2O)OC=C2C(=O)N3CC[C@@]4(C(=O)Nc5cc(O)ccc54)[C@H]3C[C@H]21 | > 80 | > 80 | > 80 | 
23 | COC(=O)C1=CO[C@@H](O[C@@H]2O[C@H](CO)[C@@H](O)[C@H](O)[C@H]2O)[C@@H]2[C@H](O)CN3CCc4c([nH]c5ccccc45)[C@@H]3C[C@H]12 | > 80 | > 80 | > 80 | 
24 | COC(=O)C1=CO[C@@H](O[C@@H]2O[C@H](CO)[C@@H](O)[C@H](O)[C@H]2O)[C@@H]2[C@@H]3CN4CCc5c([nH]c6ccccc56)[C@]4(C[C@H]12)O3 | > 80 | > 80 | > 80 | 
25 | COC(=O)C1=CO[C@@H](O[C@@H]2O[C@H](CO)[C@@H](O)[C@H](O)[C@H]2O)[C@H]2[C@@H]1C[C@H]1c3[nH]c4ccccc4c3CCN1[C@H]2CO | > 80 | > 80 | > 80 | 
26 | C=C[C@H]1[C@H](O[C@@H]2O[C@H](CO)[C@@H](O)[C@H](O)[C@H]2O)OC=C2C(=O)N3Cc4c([nH]c5cc(O)ccc5c4=O)[C@H]3C[C@H]21 | > 80 | > 80 | > 80 | 
